Reference: paper PMC9629815, “MK256 is a novel CDK8 inhibitor with potent antitumor activity in AML through downregulation of the STAT pathway” (Oncotarget, 2022)

Experiments:
[1] = In vivo mouse PK study; set-up: species or system mice; details: plasma
Experimental: Mice were dosed with either 1 mg/ml (IV) at a dose of 3 mg/kg or 3 mg/ml (PO) at a dose of 30 mg/kg in 40% PEG400 + 60% (30% Solutol) (final pH ~ 7). Blood samples were drawn at 5 mins, 15 mins, 30 mins, 1 hr, 2 hrs, 4 hrs, 8 hrs, and 24 hs from mice dosed with the IV route and at 1 hr, 4 hrs, 8 hrs and 24 hrs from mice dosed orally. An aliquot of 30 μL of plasma was extracted with 100 μL of 5:95 methanol:acetonitrile containing internal standard (Verapamil). The mixture was vortexed on a shaker for 15 minutes and subsequently centrifuged at 4000 rpm for 15 minutes. An aliquot of 70 μL of the supernatant was mixed with 70 μL water with 0.1% formic acid for the injection to the LC/MS/MS. Calibration standards were prepared by spiking MK256 into the blank mouse plasma. All samples are analyzed on LC/MS/MS using an AB Sciex API 4000 instrument, coupled to a Shimadzu LC-20AD LC Pump system.

[2] = test system: CD34+/CD38- AML TEX cells; experiment: Flow cytometry of differentiation/maturation markers; format: cell-based, human
Experimental: […] novel human leukemic cell line (TEX) cells were plated on 100 mm culture dishes at 5 × 10^5 per well, starved with medium containing IMDM supplemented with 1.5%FCS, 2 ng/ml SCF, and 0.2 ng/ml IL-3 (Amgen, Thousand Oaks, CA, USA) overnight. […] Media with tested drugs was replaced on the third day. Following the 6-day treatments, cultures were washed once in Sort buffer (PBS + 2% FBS + 2 mM EDTA), and resuspended to a final concentration of 50 million cells/mL into a 96-well V-shaped plate. Cells were subsequently incubated with Zombie Aqua Fixable Viability Dye (Thermo), washed with Sort buffer, and incubated with Human FcX (BioLegend) to prevent non-specific antibody binding. Following FcX incubation, cells were washed with Sort buffer and incubated with cell surface antibody mix diluted in the BV stain buffer (BD Biosciences) following manufacturer instructions for 30 mins on ice in the dark. Cells were then washed with 100 mL Sort buffer and permeabilized in fresh Fix/Perm solution (Foxp3 Transcription Factor Staining Buffer from eBioscience) following the manufacturer’s instructions. Cell were subsequently incubated in intracellular stain mix in Perm Buffer (1 mL 10× Perm Buffer (eBiosceince) + 8.8 mL dH2O + 2% FCS) for 30 mins on ice in dark. Isotype controls were stained with mouse IgG conjugated to FITC, PE, PerCP-Cy5.5, PE-Cy7, APC, and Alexa Fluor™ 700. Antibodies used to stain cells were FITC-conjugated anti-CD93, PE-conjugated anti-CD96, PerCP-Cy5.5-conjugated anti-CD38, PE-Cy7-conjugated anti CD-34, APC-conjugated anti-CD117, and Alexa Fluor™ 700-conjugated LIVE/DEAD (Invitrogen). Stained samples were resuspended in Perm Buffer and run on a FACSAriaII Flow Cytometer (BD Biosciences). Data were analyzed in FACSDiva (BD Biosciences) and FlowJo (Treestar). To determine the absolute numbers of cells in samples analyzed by FACS, AccuCount beads (Spherotech) were added to stained samples prior to each FACS run per manufacturer’s instructions, and absolute cell counts were calculated based on the known number of beads added. In order to cellularly differentiate apoptosis in AML cells, MOLM14, as a result of synergetic treatments of MK256 combined with ABT199, we used Dead Cell Apoptosis Kits with Annexin V (Invitrogen). MOLM14 cells were plated on a 96-well V-shaped plate at 5x10^5 per well, starved with medium containing 99% RPMI 1640, 1% FBS, and 1X Antibiotic-Antimycotic (Invitrogen). MK256 were added to final concentrations of 13.7 nM, 41.2 nM, 123.5 nM, 370.4 nM, […] on each column, while ABT199 was at final concentrations of 0.2 nM, 0.5 nM, 4.1 nM, 12.3 nM, 37.0 nM on each row. Following 72-hr retreatment, cultures were washed once in Sort buffer (PBS + 2% FBS + 2 mM EDTA) and resuspended to a final concentration of 10^4 cells/well into a 96-well V-shaped plate. Cells were subsequently incubated with Alex Fluor™ 488 annexin V and PI for Flow Cytometry following manufacturer’s instructions.

[3] = target: CYP2C9 (Homo sapiens, UniProt P11712); experiment: Cytochrome P450 inhibition assay; format: in vitro ADME; details: 50 uM
[4] = target: CDK5/p25 (Homo sapiens, UniProt Q00535); experiment: CDK panel kinase inhibition; format: biochemical; details: read-out: Percentage of inhibition (%)
Text: (§1) MK256 was synthesized in house. The kinase profiling of MK256 against various targets was done using the SelectScreen Kinase Profiling Services provided by ThermoFisher Scientific (Walham WA, USA). https://www.thermofisher.com/us/en/home/products-and-services/services/custom-services/screening-and-profiling-services/selectscreen-profiling-service/selectscreen-kinase-profiling-service.html.

[5] = target: CDK13/cyclin K (Homo sapiens, UniProt Q14004); experiment: CDK panel kinase inhibition; format: biochemical; details: read-out: Percentage of inhibition (%)
Text: as §1

[6] = target: CDK17/cyclin Y (Homo sapiens, UniProt Q00537); experiment: CDK panel kinase inhibition; format: biochemical; details: read-out: Percentage of inhibition (%)
Text: as §1

[7] = target: CDK4/cyclin D1 (Homo sapiens, UniProt P11802); experiment: CDK panel kinase inhibition; format: biochemical; details: read-out: Percentage of inhibition (%)
Text: as §1

[8] = target: CDK9/cyclin K (Homo sapiens, UniProt P50750); experiment: CDK panel kinase inhibition; format: biochemical; details: read-out: Percentage of inhibition (%)
Text: as §1

[9] = target: CDK3/cyclin E1 (Homo sapiens, UniProt Q00526); experiment: CDK panel kinase inhibition; format: biochemical; details: read-out: Percentage of inhibition (%)
Text: as §1

[10] = target: CDK5 (Inactive) (Homo sapiens, UniProt Q00535); experiment: CDK panel kinase inhibition; format: biochemical; details: read-out: Percentage of inhibition (%)
Text: as §1

[11] = target: CDK16 (PCTK1)/cyclin Y (Homo sapiens, UniProt Q00536); experiment: CDK panel kinase inhibition; format: biochemical; details: read-out: Percentage of inhibition (%)
Text: as §1

[12] = IV 3 mg/kg or PO 30 mg/kg study, footnote 2 not given

CDK16 (PCTK1)/cyclin Y, sequence (Q00536 whole entry): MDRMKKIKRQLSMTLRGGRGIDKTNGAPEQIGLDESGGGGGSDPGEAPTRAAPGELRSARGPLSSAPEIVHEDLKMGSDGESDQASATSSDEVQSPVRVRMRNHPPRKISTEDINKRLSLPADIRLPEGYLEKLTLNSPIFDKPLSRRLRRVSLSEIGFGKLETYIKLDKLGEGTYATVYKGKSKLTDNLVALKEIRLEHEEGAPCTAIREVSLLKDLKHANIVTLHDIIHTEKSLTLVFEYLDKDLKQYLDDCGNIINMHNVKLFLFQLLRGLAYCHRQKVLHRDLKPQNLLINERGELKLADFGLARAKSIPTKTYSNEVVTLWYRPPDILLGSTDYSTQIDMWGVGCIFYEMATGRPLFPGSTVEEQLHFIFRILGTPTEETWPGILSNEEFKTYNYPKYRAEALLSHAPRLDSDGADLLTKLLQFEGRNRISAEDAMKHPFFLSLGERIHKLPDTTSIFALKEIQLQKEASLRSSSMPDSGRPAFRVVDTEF
CDK16 (PCTK1)/cyclin Y, sequence (Q8ND76 whole entry partner): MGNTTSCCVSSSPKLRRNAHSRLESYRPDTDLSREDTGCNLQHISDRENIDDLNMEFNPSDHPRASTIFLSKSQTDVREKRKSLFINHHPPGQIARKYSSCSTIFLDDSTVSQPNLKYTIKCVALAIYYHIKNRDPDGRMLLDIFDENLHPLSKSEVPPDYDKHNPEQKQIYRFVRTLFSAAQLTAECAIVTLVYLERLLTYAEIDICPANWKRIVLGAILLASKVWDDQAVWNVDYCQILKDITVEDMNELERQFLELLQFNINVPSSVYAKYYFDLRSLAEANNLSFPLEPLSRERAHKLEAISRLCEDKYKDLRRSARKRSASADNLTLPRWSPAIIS
CDK5/p25, sequence (Q00535 whole entry): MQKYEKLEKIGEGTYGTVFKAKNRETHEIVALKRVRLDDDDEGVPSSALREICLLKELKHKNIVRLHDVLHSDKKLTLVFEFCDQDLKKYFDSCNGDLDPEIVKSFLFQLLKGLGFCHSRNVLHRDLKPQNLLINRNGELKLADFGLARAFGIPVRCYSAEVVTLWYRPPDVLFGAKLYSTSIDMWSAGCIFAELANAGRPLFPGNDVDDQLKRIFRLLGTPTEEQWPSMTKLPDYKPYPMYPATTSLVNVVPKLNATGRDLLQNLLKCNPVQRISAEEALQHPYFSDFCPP
CDK5/p25, sequence (Q15078 99-307 partner limits assumed): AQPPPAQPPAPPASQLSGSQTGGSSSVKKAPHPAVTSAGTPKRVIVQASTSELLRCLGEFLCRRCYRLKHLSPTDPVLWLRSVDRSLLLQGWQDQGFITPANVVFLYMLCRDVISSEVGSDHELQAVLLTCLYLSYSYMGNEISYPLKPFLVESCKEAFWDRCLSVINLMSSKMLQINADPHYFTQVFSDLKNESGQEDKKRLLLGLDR
CDK5 (Inactive), sequence (Q00535 whole entry): as the sequence (Q00535 whole entry) above
CDK9/cyclin K, sequence (P50750 whole entry): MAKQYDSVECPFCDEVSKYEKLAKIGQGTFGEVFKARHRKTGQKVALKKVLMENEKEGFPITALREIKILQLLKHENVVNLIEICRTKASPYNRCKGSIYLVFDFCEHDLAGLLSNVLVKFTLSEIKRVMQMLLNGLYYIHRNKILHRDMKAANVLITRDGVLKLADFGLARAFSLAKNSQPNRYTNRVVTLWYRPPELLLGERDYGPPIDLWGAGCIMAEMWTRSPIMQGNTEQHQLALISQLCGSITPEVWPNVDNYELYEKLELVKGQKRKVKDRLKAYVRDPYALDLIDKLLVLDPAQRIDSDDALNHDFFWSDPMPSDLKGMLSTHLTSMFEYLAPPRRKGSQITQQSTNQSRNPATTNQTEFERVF
CDK9/cyclin K, sequence (O75909 whole entry partner): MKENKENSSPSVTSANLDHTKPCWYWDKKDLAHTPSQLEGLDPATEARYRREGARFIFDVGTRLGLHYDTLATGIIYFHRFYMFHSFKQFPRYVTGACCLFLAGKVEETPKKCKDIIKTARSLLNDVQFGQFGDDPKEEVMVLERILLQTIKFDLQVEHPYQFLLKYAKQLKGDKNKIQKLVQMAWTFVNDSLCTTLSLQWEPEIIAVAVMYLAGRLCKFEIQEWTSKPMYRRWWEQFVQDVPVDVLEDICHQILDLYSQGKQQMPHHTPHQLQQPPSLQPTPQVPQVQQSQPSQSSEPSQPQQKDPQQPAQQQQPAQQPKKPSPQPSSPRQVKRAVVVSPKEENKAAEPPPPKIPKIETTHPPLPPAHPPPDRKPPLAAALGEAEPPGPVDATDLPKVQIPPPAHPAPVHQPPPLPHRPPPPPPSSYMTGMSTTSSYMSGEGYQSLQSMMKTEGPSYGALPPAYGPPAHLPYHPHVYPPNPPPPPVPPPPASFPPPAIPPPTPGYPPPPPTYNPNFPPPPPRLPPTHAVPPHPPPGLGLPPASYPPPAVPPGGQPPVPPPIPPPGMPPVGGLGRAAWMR
CDK13/cyclin K, sequence (Q14004 whole entry): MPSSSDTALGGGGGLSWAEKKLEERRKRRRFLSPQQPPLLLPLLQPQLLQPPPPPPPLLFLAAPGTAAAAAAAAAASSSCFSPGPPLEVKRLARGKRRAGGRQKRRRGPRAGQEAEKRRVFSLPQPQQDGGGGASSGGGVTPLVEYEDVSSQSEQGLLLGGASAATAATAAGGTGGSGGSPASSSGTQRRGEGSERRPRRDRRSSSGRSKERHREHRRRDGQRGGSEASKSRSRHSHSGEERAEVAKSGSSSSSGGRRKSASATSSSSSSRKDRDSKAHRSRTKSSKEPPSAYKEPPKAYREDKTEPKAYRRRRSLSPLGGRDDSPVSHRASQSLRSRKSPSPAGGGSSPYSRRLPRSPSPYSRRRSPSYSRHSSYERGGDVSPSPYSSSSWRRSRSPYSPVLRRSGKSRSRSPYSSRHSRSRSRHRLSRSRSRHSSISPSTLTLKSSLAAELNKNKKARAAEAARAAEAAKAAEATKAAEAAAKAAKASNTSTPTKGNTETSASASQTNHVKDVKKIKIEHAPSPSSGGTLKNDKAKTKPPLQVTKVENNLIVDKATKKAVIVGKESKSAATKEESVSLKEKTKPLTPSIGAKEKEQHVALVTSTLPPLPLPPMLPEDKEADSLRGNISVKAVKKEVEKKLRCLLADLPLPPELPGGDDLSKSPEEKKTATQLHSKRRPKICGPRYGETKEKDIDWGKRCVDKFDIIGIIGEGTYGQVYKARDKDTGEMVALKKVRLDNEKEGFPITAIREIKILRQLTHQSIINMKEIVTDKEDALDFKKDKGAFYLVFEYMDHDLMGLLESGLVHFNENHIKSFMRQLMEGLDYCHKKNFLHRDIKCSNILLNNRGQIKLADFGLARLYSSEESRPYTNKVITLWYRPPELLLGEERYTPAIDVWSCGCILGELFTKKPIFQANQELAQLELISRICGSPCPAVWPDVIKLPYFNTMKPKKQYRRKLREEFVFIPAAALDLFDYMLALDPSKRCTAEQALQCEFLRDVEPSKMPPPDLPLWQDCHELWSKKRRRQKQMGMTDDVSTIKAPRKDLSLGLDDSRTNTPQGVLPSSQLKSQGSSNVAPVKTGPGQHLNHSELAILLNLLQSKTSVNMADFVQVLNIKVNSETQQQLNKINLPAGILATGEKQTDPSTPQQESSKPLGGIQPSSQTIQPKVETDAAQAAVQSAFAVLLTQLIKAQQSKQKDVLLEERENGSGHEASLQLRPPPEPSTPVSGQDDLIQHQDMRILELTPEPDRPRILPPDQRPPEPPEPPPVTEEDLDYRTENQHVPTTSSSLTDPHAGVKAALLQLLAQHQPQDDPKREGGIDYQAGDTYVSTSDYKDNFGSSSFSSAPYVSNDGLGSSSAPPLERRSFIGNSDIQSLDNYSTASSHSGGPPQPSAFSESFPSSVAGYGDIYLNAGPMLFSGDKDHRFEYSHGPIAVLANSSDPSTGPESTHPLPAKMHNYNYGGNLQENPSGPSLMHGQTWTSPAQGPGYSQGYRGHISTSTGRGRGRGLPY
CDK13/cyclin K, sequence (O75909 whole entry partner): as the sequence (O75909 whole entry partner) above
CDK17/cyclin Y, sequence (Q00537 whole entry): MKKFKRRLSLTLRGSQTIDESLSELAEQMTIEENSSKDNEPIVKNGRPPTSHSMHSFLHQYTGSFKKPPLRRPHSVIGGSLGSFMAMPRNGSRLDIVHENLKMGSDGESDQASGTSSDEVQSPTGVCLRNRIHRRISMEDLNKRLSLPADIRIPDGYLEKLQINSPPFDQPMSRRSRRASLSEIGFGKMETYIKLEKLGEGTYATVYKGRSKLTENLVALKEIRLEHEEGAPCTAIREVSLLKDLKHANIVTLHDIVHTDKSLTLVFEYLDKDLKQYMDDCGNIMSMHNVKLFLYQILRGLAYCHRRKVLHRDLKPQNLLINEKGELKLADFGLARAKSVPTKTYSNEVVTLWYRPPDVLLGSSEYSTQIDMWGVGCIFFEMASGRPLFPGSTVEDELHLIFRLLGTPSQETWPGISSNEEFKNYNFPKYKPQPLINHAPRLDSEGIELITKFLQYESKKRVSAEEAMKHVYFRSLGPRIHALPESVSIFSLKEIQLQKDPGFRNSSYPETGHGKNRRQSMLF
CDK17/cyclin Y, sequence (Q8ND76 whole entry partner): as the sequence (Q8ND76 whole entry partner) above

SMILES: Nc1nccc2c(Br)cc3cc(C(=O)O)ccc3c12 [MK256]
- AUC(0-t) [1, 12]: 330 µM·h
- Cmax [1, 12]: 29 µM
- half-life [1, 12]: 216 min
- bioavailability ([1]; PO 30 mg/kg vs IV 3 mg/kg): 59%
- clearance ([1]; intravenous, 3 mg/kg): 2.83 mL/min/kg
- Vd ([1]; intravenous, 3 mg/kg, read-out: Vss): 0.49 L/kg
- differentiation of TEX cells ([2]; 50 nM): slightly induced the differentiation
- decrease of CD93 relative to control ([2]; 50 nM, day 6): 6.5%
- increase of CD117 population relative to control ([2]; 50 nM, day 6): 16.5%
- reduction in CD34 compared to control cells ([2]; 50 nM, day 6): 13%
- differentiation of TEX cells ([2]; 500 nM): much more effective
- decrease of CD93 relative to control ([2]; 500 nM, day 6): approximately 30%
- increase of CD117 population relative to control ([2]; 500 nM, day 6): 8.6%
- reduction in CD34 compared to control cells ([2]; 500 nM, day 6): 28%
- expression of CD96 with or without treatment ([2]; day 6): no difference
- reduction of CD38 negativity ([2]; treated vs control (60% CD38-)): approximately 2 fold
- cytochrome P450 inhibition [3]: no inhibition
- inhibition at 0.2 µM ([4]; 200 nM): 2%
- inhibition at 10 µM ([4]; 10 μM): 89%
- inhibition at 0.2 µM ([5]; 200 nM): 27%
- inhibition at 10 µM ([5]; 10 μM): 95%
- inhibition at 0.2 µM ([6]; 200 nM): 25%
- inhibition at 10 µM ([6]; 10 μM): 94%
- inhibition at 0.2 µM ([7]; 200 nM): 2%
- inhibition at 10 µM ([7]; 10 μM): 23%
- inhibition at 0.2 µM ([8]; 200 nM): 76%
- inhibition at 10 µM ([8]; 10 μM): 101%
- inhibition at 0.2 µM ([9]; 200 nM): 4%
- inhibition at 10 µM ([9]; 10 μM): 82%
- inhibition at 0.2 µM ([10]; 200 nM): 7%
- inhibition at 10 µM ([10]; 10 μM): 70%
- inhibition at 0.2 µM ([11]; 200 nM): 1%
- inhibition at 10 µM ([11]; 10 μM): 67%
